Three compounds from ChEMBL document CHEMBL1201862, “PubChem BioAssay data set” (2004) can be followed below.

The source made the active and inactive calls.

What all share (assay type): functional
The target of experiment [1] is Serine/threonine-protein kinase pim-3 (Homo sapiens, UniProt Q86V86).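 Further: value obtained as one member of a broad kinase panel profiling effort.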
Experiment [2] concerns the target RAC-alpha serine/threonine-protein kinase (Homo sapiens, UniProt P31749).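 Further: AKT1 affinity measured as one member of a kinome-wide kinase profiling panel.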
For experiment [3], the target named is Cyclin-dependent kinase 9 (Homo sapiens, UniProt P50750).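 Further: value from the CDK9 entry of a kinome-spanning kinase panel.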
Chain of Cyclin-dependent kinase 9 (P50750 whole entry): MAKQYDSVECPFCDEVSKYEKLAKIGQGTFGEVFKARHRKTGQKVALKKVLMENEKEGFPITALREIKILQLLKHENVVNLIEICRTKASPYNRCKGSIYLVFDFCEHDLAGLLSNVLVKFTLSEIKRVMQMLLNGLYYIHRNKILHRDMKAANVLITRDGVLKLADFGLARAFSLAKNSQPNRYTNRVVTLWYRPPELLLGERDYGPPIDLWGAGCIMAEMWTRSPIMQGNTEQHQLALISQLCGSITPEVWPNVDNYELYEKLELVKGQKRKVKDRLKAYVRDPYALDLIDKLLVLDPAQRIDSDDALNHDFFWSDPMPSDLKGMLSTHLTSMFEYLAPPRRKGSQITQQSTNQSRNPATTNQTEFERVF
For experiment [4], the target named is T1, Serine/threonine-protein kinase TAO1 (Homo sapiens, UniProt Q7L7X3).
T1 sequence (Q7L7X3 whole entry): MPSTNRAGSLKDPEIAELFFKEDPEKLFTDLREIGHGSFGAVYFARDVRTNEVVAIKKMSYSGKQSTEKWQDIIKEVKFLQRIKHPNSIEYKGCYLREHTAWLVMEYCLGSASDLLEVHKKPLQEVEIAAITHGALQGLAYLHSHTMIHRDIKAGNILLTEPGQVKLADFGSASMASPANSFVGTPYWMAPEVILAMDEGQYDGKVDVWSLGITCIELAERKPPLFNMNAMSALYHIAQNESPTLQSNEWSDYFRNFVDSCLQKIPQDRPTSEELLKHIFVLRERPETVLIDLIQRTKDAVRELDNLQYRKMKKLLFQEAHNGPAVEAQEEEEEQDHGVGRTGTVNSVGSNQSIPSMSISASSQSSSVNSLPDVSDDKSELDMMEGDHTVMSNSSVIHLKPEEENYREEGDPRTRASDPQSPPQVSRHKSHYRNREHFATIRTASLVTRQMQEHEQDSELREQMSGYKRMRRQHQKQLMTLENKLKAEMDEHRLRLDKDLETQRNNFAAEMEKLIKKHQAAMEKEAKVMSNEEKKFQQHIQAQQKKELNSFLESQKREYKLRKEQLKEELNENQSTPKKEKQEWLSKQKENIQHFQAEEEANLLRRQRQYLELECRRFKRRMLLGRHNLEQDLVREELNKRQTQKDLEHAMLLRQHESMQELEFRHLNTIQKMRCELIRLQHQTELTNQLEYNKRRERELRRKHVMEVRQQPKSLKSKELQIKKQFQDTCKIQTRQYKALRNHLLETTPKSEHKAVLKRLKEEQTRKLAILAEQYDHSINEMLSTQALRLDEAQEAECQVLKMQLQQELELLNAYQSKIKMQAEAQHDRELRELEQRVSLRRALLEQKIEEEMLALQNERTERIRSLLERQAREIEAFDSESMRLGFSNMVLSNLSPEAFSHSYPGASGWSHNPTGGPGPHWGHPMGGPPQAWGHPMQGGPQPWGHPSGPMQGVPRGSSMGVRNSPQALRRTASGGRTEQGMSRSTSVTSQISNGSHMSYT

Experiment [5] has as its target Mitogen-activated protein kinase kinase kinase kinase 4 (Homo sapiens, UniProt O95819).
The target of the next experiment is Activin receptor type-1 (Homo sapiens, UniProt Q04771). Description: Navigating the Kinome. Panel member name: ACVR1.
In experiment [6] the target is Dual specificity protein kinase CLK4 (Homo sapiens, UniProt Q9HAZ1).
The target of experiment [7] is Macrophage-stimulating protein receptor (Homo sapiens, UniProt Q04912). Description: Navigating the Kinome. Panel member name: MST1R.
In experiment [8] the target is G protein-coupled receptor kinase 5 (Homo sapiens, UniProt P34947). Description: Navigating the Kinome. Panel member name: GPRK5.
Chain of G protein-coupled receptor kinase 5 (P34947 whole entry): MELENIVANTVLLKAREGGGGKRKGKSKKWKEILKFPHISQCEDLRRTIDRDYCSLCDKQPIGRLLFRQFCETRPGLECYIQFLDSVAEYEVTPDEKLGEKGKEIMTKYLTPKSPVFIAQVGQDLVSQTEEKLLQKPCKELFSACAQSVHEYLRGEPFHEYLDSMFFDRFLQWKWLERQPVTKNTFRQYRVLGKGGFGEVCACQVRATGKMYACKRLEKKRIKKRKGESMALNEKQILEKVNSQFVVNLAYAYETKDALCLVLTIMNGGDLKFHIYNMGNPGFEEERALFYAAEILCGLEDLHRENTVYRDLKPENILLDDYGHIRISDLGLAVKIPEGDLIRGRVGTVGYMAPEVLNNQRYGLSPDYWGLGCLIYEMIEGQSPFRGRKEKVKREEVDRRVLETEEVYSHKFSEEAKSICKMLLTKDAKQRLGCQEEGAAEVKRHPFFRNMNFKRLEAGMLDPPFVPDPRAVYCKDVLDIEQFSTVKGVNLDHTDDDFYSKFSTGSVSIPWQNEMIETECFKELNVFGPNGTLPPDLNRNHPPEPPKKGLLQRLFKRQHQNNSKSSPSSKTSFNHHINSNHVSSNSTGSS
Experiment [9] addresses Serine/threonine-protein kinase 3 (Homo sapiens, UniProt Q13188).
For experiment [10], the target named is Dual specificity tyrosine-phosphorylation-regulated kinase 1B (Homo sapiens, UniProt Q9Y463). The experiment in a line: Navigating the Kinome. Panel member name: DYRK1B.
Chain of Dual specificity tyrosine-phosphorylation-regulated kinase 1B (Q9Y463 whole entry): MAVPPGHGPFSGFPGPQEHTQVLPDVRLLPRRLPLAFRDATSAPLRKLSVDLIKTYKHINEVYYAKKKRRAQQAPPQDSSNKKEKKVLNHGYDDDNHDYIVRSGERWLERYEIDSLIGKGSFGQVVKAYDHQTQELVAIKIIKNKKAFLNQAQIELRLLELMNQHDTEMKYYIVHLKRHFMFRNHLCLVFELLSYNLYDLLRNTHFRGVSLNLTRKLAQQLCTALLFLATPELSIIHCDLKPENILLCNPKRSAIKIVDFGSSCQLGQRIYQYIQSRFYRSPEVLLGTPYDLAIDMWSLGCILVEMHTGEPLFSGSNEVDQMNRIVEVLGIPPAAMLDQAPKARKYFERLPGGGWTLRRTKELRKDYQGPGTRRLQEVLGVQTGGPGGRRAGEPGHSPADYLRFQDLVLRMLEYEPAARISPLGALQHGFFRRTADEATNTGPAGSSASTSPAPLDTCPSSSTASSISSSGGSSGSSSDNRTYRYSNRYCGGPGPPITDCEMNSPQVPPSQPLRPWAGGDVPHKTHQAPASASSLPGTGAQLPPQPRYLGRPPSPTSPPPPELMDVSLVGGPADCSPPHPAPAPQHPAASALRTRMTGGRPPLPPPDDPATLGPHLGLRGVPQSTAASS
The target of experiment [11] is Dual specificity protein kinase CLK2 (Homo sapiens, UniProt P49760).
In experiment [12] the target is Leukocyte tyrosine kinase receptor (Homo sapiens, UniProt P29376). Description: Navigating the Kinome. Panel member name: LTK.
Experiment [13] has as its target Protein kinase C iota type (Homo sapiens, UniProt P41743).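 Further: measured within a kinome-wide kinase panel, PRKCI as panel member.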
Experiment [14] deals with Platelet-derived growth factor receptor alpha (Homo sapiens, UniProt P16234). Description: Navigating the Kinome. Panel member name: PDGFRA.
Experiment [15] has as its target Leucine-rich repeat serine/threonine-protein kinase 2 (Homo sapiens, UniProt Q5S007).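 Further: value from a broad kinome-wide panel profiling study in which LRRK2 was one of the kinases tested.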
Experiment [16] concerns the target Mitogen-activated protein kinase 14 (Homo sapiens, UniProt Q16539).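 Further: part of a kinome-wide panel, MAPK14 entry.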
Experiment [17] concerns the target Cyclin-dependent kinase 5 (Homo sapiens, UniProt Q00535).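 Further: CDK5 measured as one member of a kinase profiling panel.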
The target in experiment [18] is Tyrosine-protein kinase ABL1 (Homo sapiens, UniProt P00519).
In experiment [19] the target is Protein kinase C zeta type (Homo sapiens, UniProt Q05513).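 Further: measured as one member of a broad kinase profiling panel.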
Chain of Protein kinase C zeta type (Q05513 whole entry): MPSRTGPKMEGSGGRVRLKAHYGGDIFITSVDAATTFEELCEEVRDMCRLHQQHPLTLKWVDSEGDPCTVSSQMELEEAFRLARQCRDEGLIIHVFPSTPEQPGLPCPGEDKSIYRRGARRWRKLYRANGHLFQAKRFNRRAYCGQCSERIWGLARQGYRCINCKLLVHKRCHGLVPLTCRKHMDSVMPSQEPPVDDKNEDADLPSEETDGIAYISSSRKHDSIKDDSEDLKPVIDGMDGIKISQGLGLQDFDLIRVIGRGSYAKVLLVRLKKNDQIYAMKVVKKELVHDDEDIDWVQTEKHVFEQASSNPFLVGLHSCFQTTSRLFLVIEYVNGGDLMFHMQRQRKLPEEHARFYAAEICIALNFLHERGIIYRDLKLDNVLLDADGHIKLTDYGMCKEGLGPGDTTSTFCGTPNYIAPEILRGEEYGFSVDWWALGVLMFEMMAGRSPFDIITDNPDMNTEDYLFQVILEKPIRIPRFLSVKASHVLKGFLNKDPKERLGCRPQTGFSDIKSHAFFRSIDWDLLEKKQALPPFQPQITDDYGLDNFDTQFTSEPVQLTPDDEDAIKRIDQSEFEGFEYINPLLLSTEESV
The target of experiment [20] is Serine/threonine-protein kinase TBK1 (Homo sapiens, UniProt Q9UHD2). The experiment in a line: Navigating the Kinome. Panel member name: TBK1.
Experiment [21] is described as follows: IC50 of insulin release inhibition, rat insulinoma INS-1E line, 5 mM glucose, cell-based (AID 1117331).
Experiment [22] deals with Ribosomal protein S6 kinase alpha-5 (Homo sapiens, UniProt O75582).
The target in a further experiment is LIM domain kinase 1 (Homo sapiens, UniProt P53667). The experiment in a line: Navigating the Kinome. Panel member name: LIMK1.
The target of experiment [23] is Eukaryotic elongation factor 2 kinase (Homo sapiens, UniProt O00418).
For a further experiment, the target named is Insulin receptor (Homo sapiens, UniProt P06213).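 Further: insulin receptor kinase tested as one member of a kinome-wide kinase panel.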
Experiment [24] has as its target Tyrosine-protein kinase Lyn (Homo sapiens, UniProt P07948).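 Further: lyn as one member of a kinase panel.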
Experiment [25] addresses Calcium/calmodulin-dependent protein kinase type II subunit beta (Homo sapiens, UniProt Q13554).
Experiment [26] addresses Tyrosine-protein kinase receptor UFO (Homo sapiens, UniProt P30530).
In experiment [27] the target is Inhibitor of nuclear factor kappa-B kinase subunit beta (Homo sapiens, UniProt O14920).
Experiment [28] has as its target Protein-tyrosine kinase 2-beta (Homo sapiens, UniProt Q14289).

Chain of Mitogen-activated protein kinase kinase kinase kinase 4 (O95819 whole entry): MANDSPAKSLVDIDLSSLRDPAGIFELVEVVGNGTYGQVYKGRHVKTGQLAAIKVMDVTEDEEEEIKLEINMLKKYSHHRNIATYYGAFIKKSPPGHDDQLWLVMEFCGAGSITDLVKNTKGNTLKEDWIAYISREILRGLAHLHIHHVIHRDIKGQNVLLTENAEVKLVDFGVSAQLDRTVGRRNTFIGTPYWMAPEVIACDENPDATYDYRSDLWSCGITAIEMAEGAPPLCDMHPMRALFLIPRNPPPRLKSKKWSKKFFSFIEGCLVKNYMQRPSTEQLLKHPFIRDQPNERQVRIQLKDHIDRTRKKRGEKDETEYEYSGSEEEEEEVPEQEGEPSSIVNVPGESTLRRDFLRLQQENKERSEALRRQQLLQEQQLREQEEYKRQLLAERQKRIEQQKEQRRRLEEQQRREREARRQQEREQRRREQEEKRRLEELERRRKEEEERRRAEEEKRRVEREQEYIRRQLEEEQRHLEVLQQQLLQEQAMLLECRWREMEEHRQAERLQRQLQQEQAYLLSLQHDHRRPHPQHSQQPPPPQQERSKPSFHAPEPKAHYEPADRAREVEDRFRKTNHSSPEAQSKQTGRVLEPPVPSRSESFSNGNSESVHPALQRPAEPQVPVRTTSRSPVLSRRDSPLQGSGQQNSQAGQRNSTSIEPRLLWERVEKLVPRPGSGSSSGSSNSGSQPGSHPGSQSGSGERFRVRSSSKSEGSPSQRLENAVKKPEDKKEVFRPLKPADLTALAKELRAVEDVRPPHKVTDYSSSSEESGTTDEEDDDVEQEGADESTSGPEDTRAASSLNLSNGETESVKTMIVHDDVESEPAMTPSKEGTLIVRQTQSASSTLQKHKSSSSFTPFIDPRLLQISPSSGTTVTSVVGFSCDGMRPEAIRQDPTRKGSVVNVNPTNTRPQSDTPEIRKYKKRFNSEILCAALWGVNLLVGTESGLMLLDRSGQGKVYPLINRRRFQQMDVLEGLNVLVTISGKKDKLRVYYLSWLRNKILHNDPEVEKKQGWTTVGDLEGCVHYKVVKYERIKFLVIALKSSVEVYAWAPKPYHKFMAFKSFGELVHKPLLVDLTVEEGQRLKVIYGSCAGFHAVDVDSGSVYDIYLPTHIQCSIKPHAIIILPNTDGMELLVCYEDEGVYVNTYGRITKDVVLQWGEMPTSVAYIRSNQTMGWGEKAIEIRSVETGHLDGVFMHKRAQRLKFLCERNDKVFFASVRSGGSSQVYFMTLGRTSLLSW
Chain of Serine/threonine-protein kinase 3 (Q13188 whole entry): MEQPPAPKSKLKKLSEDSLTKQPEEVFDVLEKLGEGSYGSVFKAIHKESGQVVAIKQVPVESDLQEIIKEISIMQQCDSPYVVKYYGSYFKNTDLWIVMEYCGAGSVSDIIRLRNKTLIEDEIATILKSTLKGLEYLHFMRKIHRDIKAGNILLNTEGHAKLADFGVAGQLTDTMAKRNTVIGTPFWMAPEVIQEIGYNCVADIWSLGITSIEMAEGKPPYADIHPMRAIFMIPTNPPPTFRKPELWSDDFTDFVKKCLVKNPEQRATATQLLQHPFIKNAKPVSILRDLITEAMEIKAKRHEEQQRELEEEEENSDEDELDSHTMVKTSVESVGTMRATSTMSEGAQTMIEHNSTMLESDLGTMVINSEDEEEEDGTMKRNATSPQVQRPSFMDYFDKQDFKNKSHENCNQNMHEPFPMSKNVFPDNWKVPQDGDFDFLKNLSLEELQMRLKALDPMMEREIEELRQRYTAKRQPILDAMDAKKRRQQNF
Chain of Cyclin-dependent kinase 5 (Q00535 whole entry): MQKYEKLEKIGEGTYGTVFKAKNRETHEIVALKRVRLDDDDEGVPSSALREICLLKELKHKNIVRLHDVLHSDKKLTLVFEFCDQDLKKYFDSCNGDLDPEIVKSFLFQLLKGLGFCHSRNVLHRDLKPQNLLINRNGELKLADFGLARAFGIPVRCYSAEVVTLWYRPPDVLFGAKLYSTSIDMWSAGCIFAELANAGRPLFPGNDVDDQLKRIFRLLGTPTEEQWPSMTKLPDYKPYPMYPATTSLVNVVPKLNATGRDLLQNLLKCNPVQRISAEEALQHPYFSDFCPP
Chain of RAC-alpha serine/threonine-protein kinase (P31749 whole entry): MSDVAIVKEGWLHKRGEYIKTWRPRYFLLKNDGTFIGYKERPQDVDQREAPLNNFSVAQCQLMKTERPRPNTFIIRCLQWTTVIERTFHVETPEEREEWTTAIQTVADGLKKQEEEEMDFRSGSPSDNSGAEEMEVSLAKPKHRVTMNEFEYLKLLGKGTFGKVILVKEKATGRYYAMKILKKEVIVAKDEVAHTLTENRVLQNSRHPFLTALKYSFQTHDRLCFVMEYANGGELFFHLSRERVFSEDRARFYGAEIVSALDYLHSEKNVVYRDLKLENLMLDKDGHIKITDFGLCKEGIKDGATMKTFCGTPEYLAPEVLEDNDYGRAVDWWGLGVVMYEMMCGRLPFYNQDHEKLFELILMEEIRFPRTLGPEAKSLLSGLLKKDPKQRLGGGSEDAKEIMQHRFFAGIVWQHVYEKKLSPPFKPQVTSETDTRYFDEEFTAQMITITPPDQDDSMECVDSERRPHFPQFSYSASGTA

For orientation: Ki means a measure of affinity in units of concentration, obtained from inhibition or displacement. For orientation: pKi means the Ki on a negative log10 scale, so that one unit is a factor of ten. Read a high pKi as a small Ki. Consider `NC(=O)c1cc(-c2ccnc(N)n2)[nH]c1-c1ccc(Cl)cc1Cl`, for which the Ki in experiment [1] was 398 nM (active); in experiment [2], 7940 nM (active); in experiment [3], 3.98 nM (active); in experiment [4] it was 251 nM (active); in [5], 1580 nM (active); on Activin receptor type-1, 2000 nM (active). For the same compound, the Ki in [6] was 0.631 nM (active); in [7], > 3980 nM (inactive); in experiment [8], 2510 nM (active); in experiment [9] it was > 3160 nM (inactive); in experiment [10] it was 0.631 nM (active); in experiment [11], > 2.51 nM (inactive). The Ki in experiment [12] is > 2510 nM (inactive); in experiment [13] it was 794 nM (active); in experiment [14] it was > 2510 nM (inactive); in [15], 316 nM (active); in [16], > 3980 nM (inactive); in experiment [17], 316 nM (active). Further, the Ki was > 631 nM (inactive) in experiment [18], 794 nM (active) in [19] and > 3160 nM (inactive) in [20]. The pKi in experiment [1] is reported as 6.4; in [2], 5.1; in [3] it was 8.4; in experiment [4], 6.6; in experiment [5], 5.8; at Activin receptor type-1 it was 5.7. Also, the pKi in experiment [6] was determined as 9.2; in experiment [8], 5.6; in [10], 9.2; in [13] it was 6.1; in experiment [15], 6.5; in experiment [17], 6.5. In experiment [19], this compound had a pKi of 6.1.
What is called IC50 is the concentration that inhibits the measured activity by half. On to `Cc1ccc(-n2nc(C(C)(C)C)cc2NC(=O)Nc2ccc(OCCN3CCOCC3)c3ccccc23)cc1` [DORAMAPIMOD], for which the IC50 in experiment [21] is > 33300 nM (inactive).
Turning to `NC(COc1cncc(-c2ccc3c(c2)C(=Cc2ccco2)C(=O)N3)c1)Cc1c[nH]c2ccccc12` (configuration not stated), the Ki in [22] is 25.1 nM (active); in experiment [4], 126 nM (active); in experiment [9] it was 12.6 nM (active); on LIM domain kinase 1, 794 nM (active); in experiment [23], 1260 nM (active); at Insulin receptor it was > 5010 nM (inactive). Besides, the Ki was 316 nM (active) in experiment [24]; 251 nM (active) in [25]; 10 nM (active) in experiment [26]; 1260 nM (active) in [27]; > 1580 nM (inactive) in experiment [28]; > 631 nM (inactive) in [18].
